Legend:
[1] = system: dopamine release; assay: Dopamine release; type: biochemical
Protocol: Dopamine release was measured using the techniques described in U.S. Pat. No. 5,597,919 to Dull et al. Release is expressed as a percentage of release obtained with a concentration of (S)-(−)-nicotine resulting in maximal effects. Reported EC50 values are expressed in nM, and Emax values represent the amount released relative to (S)-(−)-nicotine on a percentage basis.

[2] = target: T1, muscle-type nicotinic acetylcholine receptors (Homo sapiens, UniProt P02708+P07510+Q07001); assay: Interaction with muscle receptors; type: cell-based; settings: relative to (S)-(-)-nicotine
T1 construct: endogenous in cells; host or cells: TE671/RD (own knowledge of the cited US 5,597,919)
T1 sequence (P02708 21-457): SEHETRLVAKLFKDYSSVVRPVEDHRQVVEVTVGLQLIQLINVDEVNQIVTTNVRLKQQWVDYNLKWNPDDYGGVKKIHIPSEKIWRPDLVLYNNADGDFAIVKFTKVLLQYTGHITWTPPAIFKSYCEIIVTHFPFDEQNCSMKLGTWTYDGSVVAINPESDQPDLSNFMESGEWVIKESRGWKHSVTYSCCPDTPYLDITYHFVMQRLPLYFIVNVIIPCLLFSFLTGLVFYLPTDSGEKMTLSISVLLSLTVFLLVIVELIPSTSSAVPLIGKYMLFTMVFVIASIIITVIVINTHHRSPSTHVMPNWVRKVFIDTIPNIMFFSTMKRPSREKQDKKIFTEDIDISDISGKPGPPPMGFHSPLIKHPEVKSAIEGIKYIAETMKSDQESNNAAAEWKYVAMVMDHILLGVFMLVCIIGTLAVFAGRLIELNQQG
T1 sequence (P11230 24-501 partner): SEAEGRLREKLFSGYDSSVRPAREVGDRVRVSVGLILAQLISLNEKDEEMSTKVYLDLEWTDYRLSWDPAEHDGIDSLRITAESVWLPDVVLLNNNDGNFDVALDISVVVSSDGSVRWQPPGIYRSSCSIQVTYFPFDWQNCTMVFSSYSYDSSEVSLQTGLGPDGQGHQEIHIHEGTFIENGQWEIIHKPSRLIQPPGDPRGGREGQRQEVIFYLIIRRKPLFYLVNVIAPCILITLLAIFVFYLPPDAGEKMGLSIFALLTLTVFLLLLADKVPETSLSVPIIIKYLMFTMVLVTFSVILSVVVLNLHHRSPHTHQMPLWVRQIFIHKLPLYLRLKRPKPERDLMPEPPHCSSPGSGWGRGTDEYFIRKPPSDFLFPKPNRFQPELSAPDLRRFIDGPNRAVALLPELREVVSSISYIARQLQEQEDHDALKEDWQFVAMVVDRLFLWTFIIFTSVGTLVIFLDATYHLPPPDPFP
T1 sequence (Q07001 22-517): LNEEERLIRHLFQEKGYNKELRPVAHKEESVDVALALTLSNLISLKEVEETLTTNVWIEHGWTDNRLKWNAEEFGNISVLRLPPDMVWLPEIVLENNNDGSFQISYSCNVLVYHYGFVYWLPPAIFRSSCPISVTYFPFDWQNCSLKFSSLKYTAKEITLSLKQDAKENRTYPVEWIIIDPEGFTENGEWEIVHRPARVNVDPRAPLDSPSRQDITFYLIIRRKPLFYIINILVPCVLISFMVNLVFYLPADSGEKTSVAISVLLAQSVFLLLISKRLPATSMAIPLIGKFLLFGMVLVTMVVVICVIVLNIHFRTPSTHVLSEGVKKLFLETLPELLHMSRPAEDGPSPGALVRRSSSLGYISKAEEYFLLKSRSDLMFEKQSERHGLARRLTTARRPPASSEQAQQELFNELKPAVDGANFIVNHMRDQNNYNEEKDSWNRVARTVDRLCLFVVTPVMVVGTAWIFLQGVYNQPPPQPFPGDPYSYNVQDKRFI
T1 sequence (P07510 23-517): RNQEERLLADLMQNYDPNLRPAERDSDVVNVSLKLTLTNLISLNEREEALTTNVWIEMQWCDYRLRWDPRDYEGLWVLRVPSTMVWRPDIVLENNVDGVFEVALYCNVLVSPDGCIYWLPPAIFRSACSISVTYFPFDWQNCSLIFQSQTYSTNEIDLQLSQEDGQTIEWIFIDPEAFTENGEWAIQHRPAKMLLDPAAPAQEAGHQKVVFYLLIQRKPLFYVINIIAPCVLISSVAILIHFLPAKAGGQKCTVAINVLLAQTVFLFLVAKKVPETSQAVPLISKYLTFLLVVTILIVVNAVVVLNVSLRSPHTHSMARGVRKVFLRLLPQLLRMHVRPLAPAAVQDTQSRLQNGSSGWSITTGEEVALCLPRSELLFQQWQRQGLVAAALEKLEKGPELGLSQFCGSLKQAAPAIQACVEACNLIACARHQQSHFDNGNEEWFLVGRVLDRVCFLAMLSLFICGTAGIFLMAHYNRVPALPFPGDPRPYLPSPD
Protocol: (§1) The determination of the interaction of the compounds with muscle receptors was carried out in accordance with the techniques described in U.S. Pat. No. 5,597,919 to Dull et al. The maximal activation for individual compounds (Emax) was determined as a percentage of the maximal activation induced by (S)-(−)-nicotine. Reported Emax values represent the amount released relative to (S)-(−)-nicotine on a percentage basis. […] Such preferable compounds have the capability to activate human CNS receptors without activating muscle-type nicotinic acetylcholine receptors. Thus, there is provided a therapeutic window for utilization in the treatment of CNS disorders. […] The compounds begin to cause muscle effects only when employed in amounts of many times those required to activate dopamine release.

[3] = system: laboratory rats; assay: Step-through passive avoidance, scopolamine induced amnesia; type: in vivo, rat; settings: 0.3 to 3 umol/kg subcutaneous, 0.5 umol/kg scopolamine
Protocol: A Gemini Avoidance System (San Diego Instruments) were used to evaluate animals in a passive avoidance experiment. During the period of habituation, laboratory rats received a subcutaneous injection of saline. On the acquisition day, each rat received a subcutaneous injection of 0.5 umol/kg scopolamine (or saline in the case of the vehicle control group) 30 minutes prior to being placed in the chambers. Five minutes following scopolamine injection, (or 25 minutes before being placed in the chamber), each rat was administered a subcutaneous injection with one of four doses of the compound. Thirty minutes following the scopolamine or vehicle injection, each rat was placed in the brightly illuminated chamber, facing away from the sliding door. After 10 seconds, the door separating the chambers opened allowing access to the dark chamber. The time to enter the dark chamber was measured. Immediately upon entering the dark chamber, the rat received a mild foot shock (0.5 mAmp) for 2 seconds. Twenty four hours following training, each rat was placed in the light chamber facing away from the sliding door. […] Statistical differences in latencies (latency during acquisition and retention trials) were analyzed by Kruskal-Wallis one-way analysis of variance on ranks followed by the either of two-tailed Mann-Whitney U-test or Newman-Keuls analog test if values of p less than 0.05 were obtained. […]

[4] = target: T2, CNS nicotinic receptors (Rattus norvegicus, UniProt P09483+P12390); assay: Binding to relevant receptor sites; settings: calculated from IC50 values using the method of Cheng et al.
T2 construct: Ki
T2 sequence (P09483 31-630): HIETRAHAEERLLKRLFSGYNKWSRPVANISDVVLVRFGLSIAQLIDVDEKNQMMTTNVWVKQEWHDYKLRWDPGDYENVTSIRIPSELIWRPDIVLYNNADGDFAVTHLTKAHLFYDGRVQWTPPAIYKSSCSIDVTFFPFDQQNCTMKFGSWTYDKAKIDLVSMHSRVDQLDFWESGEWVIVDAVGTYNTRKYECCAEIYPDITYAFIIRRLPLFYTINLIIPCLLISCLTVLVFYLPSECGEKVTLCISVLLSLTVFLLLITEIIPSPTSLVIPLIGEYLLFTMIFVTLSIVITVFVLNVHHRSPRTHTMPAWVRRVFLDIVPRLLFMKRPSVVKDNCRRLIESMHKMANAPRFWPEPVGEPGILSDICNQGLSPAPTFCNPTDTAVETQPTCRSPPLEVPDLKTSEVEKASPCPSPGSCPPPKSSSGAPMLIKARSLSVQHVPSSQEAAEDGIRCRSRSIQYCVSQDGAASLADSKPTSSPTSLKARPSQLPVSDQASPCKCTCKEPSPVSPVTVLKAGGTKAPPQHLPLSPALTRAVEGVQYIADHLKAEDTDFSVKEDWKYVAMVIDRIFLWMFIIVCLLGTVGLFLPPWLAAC
T2 sequence (P12390 25-500): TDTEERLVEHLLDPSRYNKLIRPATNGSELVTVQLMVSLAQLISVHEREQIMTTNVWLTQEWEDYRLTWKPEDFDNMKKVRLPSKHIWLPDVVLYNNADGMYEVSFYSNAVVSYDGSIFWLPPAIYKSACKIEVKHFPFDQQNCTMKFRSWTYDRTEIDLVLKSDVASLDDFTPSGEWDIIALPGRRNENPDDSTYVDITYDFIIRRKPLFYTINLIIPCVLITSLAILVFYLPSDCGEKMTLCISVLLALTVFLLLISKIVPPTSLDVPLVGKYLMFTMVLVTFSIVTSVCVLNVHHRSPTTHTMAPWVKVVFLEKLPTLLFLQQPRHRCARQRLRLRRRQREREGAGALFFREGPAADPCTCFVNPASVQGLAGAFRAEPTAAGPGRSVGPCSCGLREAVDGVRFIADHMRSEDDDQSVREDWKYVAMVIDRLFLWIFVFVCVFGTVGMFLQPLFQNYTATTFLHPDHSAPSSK
Protocol: Binding of the compounds to relevant receptor sites was determined in accordance with the techniques described in U.S. Pat. No. 5,597,919 to Dull et al. Inhibition constants (Ki values), reported in nM, were calculated from the IC50 values using the method of Cheng et al., Biochem, Pharmacol. 22:3099 (1973).

[5] = system: ganglia-type nicotinic acetylcholine receptors; assay: Interaction with ganglion receptors; type: cell-based; settings: relative to (S)-(-)-nicotine
Protocol: as §1, with “ganglionic” for “muscle”, “ganglia-type” for “muscle-type”, “cause” for “cause muscle”, “effects at ganglia” for “effects”
The determination of the interaction of the compounds with ganglionic receptors was carried out in accordance with the techniques described in U.S. Pat. No. 5,597,919 to Dull et al. The maximal activation for individual compounds (Emax) was determined as a percentage of the maximal activation induced by (S)-(−)-nicotine. Reported Emax values represent the amount released relative to (S)-(−)-nicotine on a percentage basis.

[6] = target: T3, CNS nicotinic receptors; assay: Rubidium release; type: biochemical
T3 construct: Emax, rubidium release; other: relative to 300 uM tetramethylammonium ion
Protocol: Rubidium release was measured using the techniques described in Bencherif et al., JPET, 279: 1413-1421 (1996). Reported EC50 values are expressed in nM, and Emax values represent the amount of rubidium ion released relative to 300 uM tetranmethylammonium ion, on a percentage basis.

For “(3-(3-Pyridyloxy)propyl)methylamine Hemigalactarate [Example 5]”, the EC50 [1] was 369 nM, the “Emax, dopamine release” value ([1]; amount released relative to (S)-(-)-nicotine) was 96% and the “Emax at muscle-type receptors” value [2] was 0%. For the same substance, the “reversal of scopolamine induced amnesia” value [3] was “significant reversal of scopolamine induced amnesia”, the Ki [4] was 13 nM and the “Emax at ganglionic-type receptors” value [5] was 93%. The EC50 [6] was 960 nM and the “Emax, rubidium release” value ([6]; relative to 300 uM tetramethylammonium ion) was 83%.
